Measurements from PMC11872507, “Lasso peptides sviceucin and siamycin I exhibit anti-virulence activity and restore vancomycin effectiveness in vancomycin-resistant pathogens” (iScience, 2025).
Values after ≈ are worked out from the molar mass of the structure shown.

Legend:
[1] = test system: V583 ΔvanSB-vanRB::vanS-vanR; experiment: Vancomycin MIC, microdilution; type: cell-based; details: Enterococcus faecalis; vancomycin alone (control); VanA-type transduction system, VanB-type resistance genes
Procedure: To further support this, we investigated the origin of the different activity spectra of sviceucin and siamycin I between VanA- and VanB-type vancomycin resistance. We first replaced vanSB by vanS in the VanB-type strain E. faecalis V583. VanS-VanRB strain was sensitive to vancomycin (MIC = 2 μg/mL), probably because of an impaired signal transduction between VanS and VanRB. To bypass this issue, we replaced the vanRBSB-PvanYB fragment by the vanRS-PvanH fragment from a VanA-type operon, resulting in a VanA-type transduction system fused to VanB-type resistance genes.

E. faecalis V583 [2] = experiment: Vancomycin MIC with nanoemulsions; type: cell-based, Enterococcus faecalis; details: with blank NEs
Procedure: The formulation of the nanoemulsions was based on the spontaneous nanoemulsification method previously described by Séguy et al.[41] and transposed to lasso peptides. The present nanoemulsions were developed from anhydrous mixtures composed of excipients already described in the European Pharmacopeia (World Health Organization, 2018) and already proven to be hemocompatible on human whole blood. Monodisperse nanoemulsions could be formulated at a drug payload of 400 μg/mL for siamycin I. At these concentrations, the drug added to the anhydrous mixture during the formulation process appeared to be completely dissolved. After the addition of the aqueous phase, a homogeneous colloidal suspension was observed. The nanoemulsions were characterized in terms of granulometric and physicochemical properties (Table S6). The hydrodynamic diameter, zeta potential, and PDI were not changed relative to the blank nanoemulsions, remaining lower than 0.25, indicating the presence of a monodispersed population.

SiaA = experiment: Vancomycin MIC, microdilution; type: cell-based, Enterococcus faecalis
Procedure: (§1) The MIC of vancomycin was determined by the microdilution method described in the guidelines of the European Committee on Antimicrobial Susceptibility Testing (EUCAST 2024, v14.0 Breakpoint Tables).[58] For enterococci, GM17 medium was used instead of CAMH medium since enterococci cannot degrade starch, the main carbohydrate of MH medium. 2-fold serial dilutions of the tested antibiotic were performed to obtain concentrations ranging from 0.5 to 512 μg/mL. LP were then added to the wells at the desired concentration. The medium was inoculated with a final inoculum of 5 × 10^5 CFU/mL. The MIC is the lowest concentration that prevents visible in vitro growth.
(§2) Resistant clones to sviceucin were selected by plating bacteria on GM17 agar medium supplemented with vancomycin at 32 μg/mL and sviceucin at 10 μM. Growth and MIC of vancomycin and sviceucin of the resistant clones were tested. The selection for siamycin I resistance was done by performing serial passages of bacteria in GM17 medium supplemented with vancomycin 10 μg/mL and increasing concentrations of siamycin I from 0.5 to 5 μM. Single nucleotide polymorphism (SNPs) analysis was performed on the sequenced gDNA of each selected resistant mutant.

Svic1 = experiment: Vancomycin MIC, microdilution; type: cell-based, Enterococcus faecalis
Procedure: as §1, §2

E. faecium 1 231 410 = experiment: microbe, parasite or virus in culture; type: cell-based, Enterococcus faecium; details: Enterococcus faecium, 1231410, read-out: Vancomycin MIC
E. faecium 1 230 933 = experiment: microbe, parasite or virus in culture; type: cell-based, Enterococcus faecium; details: Enterococcus faecium, 1230933, read-out: Vancomycin MIC
S. aureus 16038 (VISA) = experiment: microbe, parasite or virus in culture; type: cell-based, Staphylococcus aureus; details: Staphylococcus aureus, VISA, read-out: Vancomycin MIC
S. aureus T-SAR12 VRSA.B = experiment: microbe, parasite or virus in culture; type: cell-based, Staphylococcus aureus; details: Staphylococcus aureus, VRSA, read-out: Vancomycin MIC
Procedure: as §1

S. aureus T-SAR12 VRSA.A = experiment: microbe, parasite or virus in culture; type: cell-based, Staphylococcus aureus; details: Staphylococcus aureus, VRSA, read-out: Vancomycin MIC
Procedure: as §1

E. faecalis V583 ΔvanB = experiment: microbe, parasite or virus in culture; type: cell-based, Enterococcus faecalis; details: Enterococcus faecalis, read-out: Vancomycin MIC
V583 vanSB^D398E = experiment: Vancomycin MIC, microdilution; type: cell-based; details: Enterococcus faecalis; vancomycin alone (control)
SiaE = experiment: Vancomycin MIC, spontaneous mutants; type: cell-based; details: Enterococcus faecalis; vancomycin alone; frameshift in ccpA
Procedure: as §1, §2

SiaC = experiment: Vancomycin MIC, spontaneous mutants; type: cell-based; details: Enterococcus faecalis; vancomycin alone; CcpA A148V
Procedure: as §1, §2

Svic4 = experiment: Vancomycin MIC, spontaneous mutants; type: cell-based; details: Enterococcus faecalis; vancomycin alone; atpD RBS modification
Procedure: as §1, §2

Svic2 = experiment: Vancomycin MIC, spontaneous mutants; type: cell-based; details: Enterococcus faecalis; vancomycin alone; nonsense mutation in atpA
Procedure: as §1, §2

Svic3 = experiment: Vancomycin MIC, spontaneous mutants; type: cell-based; details: Enterococcus faecalis; vancomycin alone; nonsense mutation in atpF
Procedure: as §1, §2

SiaB = experiment: Vancomycin MIC, spontaneous mutants; type: cell-based; details: Enterococcus faecalis; vancomycin alone; CcpA D121V
Procedure: as §1, §2

SiaD = experiment: Vancomycin MIC, spontaneous mutants; type: cell-based; details: Enterococcus faecalis; vancomycin alone; CcpA A89P
Procedure: as §1, §2

E. faecium 1 231 502 = experiment: microbe, parasite or virus in culture; type: cell-based, Enterococcus faecium; details: Enterococcus faecium, 1231502, read-out: Vancomycin MIC
[3] = test system: V583 ΔvanSBmalT::vanR^D53E; experiment: Vancomycin MIC, microdilution; type: cell-based; details: Enterococcus faecalis; vancomycin alone (control); phosphomimetic VanR^D53E
Procedure: as §1

V583 vanSB^S402I = experiment: Vancomycin MIC, microdilution; type: cell-based; details: Enterococcus faecalis; vancomycin alone (control)
E. faecalis HIP11704 = experiment: microbe, parasite or virus in culture; type: cell-based, Enterococcus faecalis; details: Enterococcus faecalis, HIP11704, read-out: Vancomycin MIC
V583 ΔvanSB = experiment: Vancomycin MIC, microdilution; type: cell-based; details: Enterococcus faecalis; vancomycin alone (control)
Procedure: The MIC of vancomycin was determined by the microdilution method described in the guidelines of the European Committee on Antimicrobial Susceptibility Testing (EUCAST 2024, v14.0 Breakpoint Tables).[58] […] 2-fold serial dilutions of the tested antibiotic were performed to obtain concentrations ranging from 0.5 to 512 μg/mL. LP were then added to the wells at the desired concentration. The medium was inoculated with a final inoculum of 5 × 10^5 CFU/mL. The MIC is the lowest concentration that prevents visible in vitro growth.

E. faecalis V583 [4] = experiment: microbe, parasite or virus in culture; type: cell-based, Enterococcus faecalis
Svic1 ΔvanB = experiment: Vancomycin MIC, microdilution; type: cell-based; details: Enterococcus faecalis; vancomycin alone (control)
[5] = Enterococcus faecalis, read-out: Vancomycin MIC

`CN[C@H](CC(C)C)C(=O)N[C@H]1C(=O)N[C@@H](CC(N)=O)C(=O)N[C@H]2C(=O)N[C@H]3C(=O)N[C@H](C(=O)N[C@H](C(=O)O)c4cc(O)cc(O)c4-c4cc3ccc4O)[C@H](O)c3ccc(c(Cl)c3)Oc3cc2cc(c3O[C@@H]2O[C@H](CO)[C@@H](O)[C@H](O)[C@H]2O[C@H]2C[C@](C)(N)[C@H](O)[C@H](C)O2)Oc2ccc(cc2Cl)[C@H]1O` [Vancomycin] was tested. Which MIC [1] did it give?
Its MIC is 32 µg/mL (≈ 22.1 µM).

And the “Vancomycin MIC” value (E. faecalis V583 [2])?
Its value is 32.

And the MIC (SiaA; [5])?
The MIC was 128 µg/mL (≈ 88.3 µM).

And the “fold increase of the MIC of vancomycin vs wild-type” value (SiaA; vancomycin alone)?
Its value is 4 fold.

And the “Vancomycin MIC” value (SiaA; {})?
Its value is 128 µg/mL.

And the MIC (Svic1; [5])?
The MIC was 128 µg/mL (≈ 88.3 µM).

What about the “fold increase of the MIC of vancomycin vs wild-type” value (Svic1; vancomycin alone) of the same compound?
Its value is 4 fold.

And the “Vancomycin MIC” value (Svic1; {})?
Its value is 128 µg/mL.

And the MIC (E. faecium 1 231 410)?
The MIC was 128 µg/mL (≈ 88.3 µM).

What about the MIC (E. faecium 1 230 933) of the same compound?
The MIC was 512 µg/mL (≈ 353 µM).

What about the MIC (S. aureus 16038 (VISA)) of the same compound?
The MIC was 4 µg/mL (≈ 2.76 µM).

What about the MIC (S. aureus T-SAR12 VRSA.B) of the same compound?
The MIC was 64 µg/mL (≈ 44.2 µM).

What about the MIC (S. aureus T-SAR12 VRSA.A) of the same compound?
Its MIC is > 512 µg/mL.

And the MIC (E. faecalis V583 ΔvanB)?
The MIC was 2 µg/mL (≈ 1.38 µM).

What about the MIC (V583 vanSB^D398E) of the same compound?
Its MIC is 128 µg/mL (≈ 88.3 µM).

What about the MIC (SiaE) of the same compound?
The MIC was 32 µg/mL.

What about the MIC (SiaC) of the same compound?
The MIC was 64 µg/mL (≈ 44.2 µM).

What about the MIC (Svic4) of the same compound?
Its MIC is 256 µg/mL (≈ 177 µM).

And the MIC (Svic2)?
The MIC was 256 µg/mL (≈ 177 µM).

And the MIC (Svic3)?
Its MIC is 256 µg/mL (≈ 177 µM).

What about the MIC (SiaB) of the same compound?
The MIC was 64 µg/mL (≈ 44.2 µM).

What about the MIC (SiaD) of the same compound?
Its MIC is 64 µg/mL (≈ 44.2 µM).

What about the MIC (E. faecium 1 231 502) of the same compound?
The MIC was 128 µg/mL (≈ 88.3 µM).

What about the MIC [3] of the same compound?
Its MIC is 32 µg/mL (≈ 22.1 µM).

And the MIC (V583 vanSB^S402I)?
The MIC was 128 µg/mL (≈ 88.3 µM).

And the MIC (E. faecalis HIP11704)?
Its MIC is 1020 µg/mL (≈ 707 µM).

What about the MIC (V583 ΔvanSB) of the same compound?
Its MIC is 2 µg/mL (≈ 1.38 µM).

And the MIC (E. faecalis V583 [4]; Enterococcus faecalis, V583, read-out: Vancomycin MIC)?
Its MIC is 32 µg/mL (≈ 22.1 µM).

What about the “Vancomycin MIC” value (E. faecalis V583 [4]; vancomycin alone (control, 1:1 water:methanol formulation), GM17, 5 × 10^5 CFU/mL, VanB) of the same compound?
The value was 32 µg/mL.

And the MIC (Svic1 ΔvanB)?
Its MIC is 2 µg/mL (≈ 1.38 µM).
